Results as given in the supplement of paper PMC10307832.

Key:
Assay in all cases: relative viability (nuclei count vs DMSO), 5 days (fraction); higher = more cells survive
XMD8-85 + Luminespib = compound: CN1CCN(CC1)C2=CC(=C(C=C2)NC3=NC=C4C(=N3)N(C5=CC=CC=C5C(=O)N4C)C)OC [XMD8-85] + CCNC(=O)c1noc(-c2cc(C(C)C)c(O)cc2O)c1-c1ccc(CN2CCOCC2)cc1 [Luminespib] (partner 0.01 µM)
In short: (§1)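 Lung cancer cell lines, seeded in 1536-well plates, were treated the following day by pin tool with a single drug or with five library-drug doses (not always all listed) in √10 steps on top of a fixed anchor-drug dose. Cells were fixed and nuclei stained in one step after 5 days, and nuclei were counted. Relative viability is the nuclei count for treated wells divided by that for vehicle wells, reported as medians of duplicate plates.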

4EGI-1 + AZD7762 = compound: O=C(O)C(Cc1ccccc1[N+](=O)[O-])=NNc1nc(-c2ccc(Cl)c(Cl)c2)cs1 (mixture of isomers) [4EGI-1] + NC(=O)Nc1cc(-c2cccc(F)c2)sc1C(=O)N[C@H]1CCCNC1 [AZD7762] (partner 0.2 µM)
In short: as §1

4EGI-1 + OSI-027 = compound: O=C(O)C(Cc1ccccc1[N+](=O)[O-])=NNc1nc(-c2ccc(Cl)c(Cl)c2)cs1 (mixture of isomers) [4EGI-1] + COc1cccc2cc(-c3nc([C@H]4CC[C@H](C(=O)O)CC4)n4ncnc(N)c34)[nH]c12 [OSI-027] (partner 0.5 µM)
In short: as §1

XMD8-85 + Pictilisib = compound: CN1CCN(CC1)C2=CC(=C(C=C2)NC3=NC=C4C(=N3)N(C5=CC=CC=C5C(=O)N4C)C)OC [XMD8-85] + CS(=O)(=O)N1CCN(Cc2cc3nc(-c4cccc5[nH]ncc45)nc(N4CCOCC4)c3s2)CC1 [Pictilisib] (partner 1 µM)
In short: as §1

Cell Line | relative viability (XMD8-85 + Luminespib; first compound 0.08 µM) | relative viability (XMD8-85 + Luminespib; first compound 0.253 µM) | relative viability (XMD8-85 + Luminespib; first compound 0.8 µM) | relative viability (XMD8-85 + Luminespib; first compound 2.53 µM) | relative viability (XMD8-85 + Luminespib; first compound 8 µM) | relative viability (4EGI-1 + AZD7762; first compound 0.5 µM) | relative viability (4EGI-1 + AZD7762; first compound 1.581 µM) | relative viability (4EGI-1 + AZD7762; first compound 5 µM) | relative viability (4EGI-1 + AZD7762; first compound 15.81 µM) | relative viability (4EGI-1 + AZD7762; first compound 50 µM) | relative viability (4EGI-1 + OSI-027; first compound 0.5 µM) | relative viability (4EGI-1 + OSI-027; first compound 5 µM) | relative viability (4EGI-1 + OSI-027; first compound 15.81 µM) | relative viability (4EGI-1 + OSI-027; first compound 50 µM) | relative viability (XMD8-85 + Pictilisib; first compound 0.08 µM) | relative viability (XMD8-85 + Pictilisib; first compound 0.253 µM) | relative viability (XMD8-85 + Pictilisib; first compound 0.8 µM) | relative viability (XMD8-85 + Pictilisib; first compound 2.53 µM) | relative viability (XMD8-85 + Pictilisib; first compound 8 µM) | relative viability (4EGI-1 + OSI-027; first compound 1.581 µM)
HCC-15 | 0.481 | 0.479 | 0.295 | 0.336 | 0.302 | 1.21 | 1.12 | 1.26 | 1.17 | 1.28 | 0.692 | 0.734 | 0.557 | 0.19 | 0.684 | 0.691 | 0.76 | 0.728 | 0.616 | 
NCI-H23 | 0.207 | 0.234 | 0.214 | 0.199 | 0.193 | 0.372 |  | 0.27 | 0.23 | 0.192 | 0.612 | 0.614 | 0.453 | 0.417 | 0.486 | 0.508 | 0.524 | 0.523 | 0.426 | 
LC-2-ad | 1.26 | 0.996 | 1.22 | 0.874 | 0.706 | 0.855 | 0.866 | 0.917 | 0.3 | 0.208 | 0.873 | 0.894 | 0.386 | 0.234 | 0.433 | 0.497 | 0.543 | 0.483 | 0.276 | 
HCC-44 | 1.32 | 1.21 | 1.36 | 0.588 | 0.75 | 1.02 | 0.984 | 0.976 | 0.922 | 0.799 | 0.483 | 0.41 | 0.404 | 0.175 | 0.616 | 0.548 | 0.767 | 0.783 | 0.452 | 
PC-14 | 0.14 | 0.167 | 0.179 | 0.154 | 0.134 | 0.342 |  | 0.367 | 0.117 | 0.0594 | 1.21 | 1.15 | 0.14 | 0.0614 | 0.618 | 0.521 | 0.661 | 0.681 | 0.462 | 
NCI-H647 | 0.151 | 0.208 | 0.169 | 0.126 | 0.132 | 0.375 |  | 0.643 | 0.192 | 0.101 | 0.7 | 0.739 | 0.671 | 0.399 | 0.473 | 0.45 | 0.367 | 0.434 | 0.155 | 
201T | 1.06 | 1.1 | 1.02 | 1.03 | 0.936 | 0.797 | 0.514 | 0.736 | 0.619 | 0.495 | 0.791 | 0.824 | 0.704 | 0.656 | 0.635 | 0.677 | 0.723 | 0.746 | 0.556 | 0.622
PC-3 [JPC-3] | 0.725 | 0.805 | 0.663 | 0.82 | 0.543 | 0.845 |  | 0.868 | 0.519 | 0.323 | 0.778 | 0.746 |  | 0.498 | 0.717 | 0.666 | 0.766 | 0.879 | 0.672 | 0.73
HCC-827 | 0.834 | 0.486 | 0.756 | 0.797 | 0.614 | 0.255 | 0.217 | 0.211 |  | 0.139 | 0.888 | 0.796 |  | 0.719 | 1.16 | 1.03 | 0.902 | 1.11 | 1.15 | 0.629
NCI-H1395 | 0.784 | 0.603 | 0.731 | 0.684 | 0.482 | 0.44 |  | 0.393 | 0.344 | 0.374 | 0.647 | 0.686 | 0.567 | 0.355 | 0.699 | 0.649 | 0.634 | 0.613 | 0.484 | 0.43
EPLC-272H | 0.266 | 0.373 | 0.629 | 0.389 | 0.186 | 0.264 |  | 0.239 | 0.151 | 0.0667 | 0.317 | 0.285 | 0.274 | 0.172 |  | 0.324 | 0.318 | 0.327 | 0.267 | 
NCI-H2087 | 0.182 | 0.167 | 0.159 | 0.118 | 0.175 | 1.42 | 1.48 | 1.34 | 1.06 | 0.391 | 0.693 | 0.656 | 0.438 | 0.203 | 0.924 | 0.723 | 0.961 | 0.83 | 0.542 | 0.523
HARA | 0.927 | 0.726 | 0.749 | 0.528 | 0.387 | 0.397 | 0.48 | 0.241 | 0.195 | 0.161 | 0.651 | 0.648 | 0.453 | 0.154 | 0.47 | 0.473 | 0.455 | 0.436 | 0.259 | 0.517
NCI-H2170 | 0.887 | 0.609 | 0.931 | 0.894 | 0.474 | 0.923 | 0.806 | 1.03 | 0.697 | 0.244 | 0.785 | 0.713 | 0.558 | 0.391 | 0.26 | 0.341 | 0.335 | 0.305 | 0.289 | 0.63
BEN | 0.248 | 0.333 | 0.851 | 0.357 | 0.317 | 0.76 | 0.657 | 0.689 | 0.593 | 0.382 | 0.328 | 0.324 | 0.317 | 0.26 | 0.535 | 0.547 |  | 0.483 | 0.38 | 0.281
EKVX | 0.911 | 0.905 | 0.588 | 0.877 | 0.876 | 0.812 |  | 0.649 | 0.546 | 0.656 | 0.736 | 0.738 | 0.567 | 0.696 | 0.454 | 0.467 | 0.416 | 0.451 | 0.441 | 0.594
NCI-H1755 | 0.672 | 0.414 | 0.344 | 0.482 | 0.342 | 0.441 | 0.411 | 0.457 | 0.344 | 0.252 | 0.791 | 0.693 | 0.713 | 0.487 | 0.369 | 0.426 | 0.448 | 0.552 | 0.357 | 0.663
NCI-H2126 | 0.948 | 1 | 0.917 | 1.05 | 0.891 | 1.03 | 1.09 | 1 | 0.901 | 0.772 | 0.721 | 0.778 | 0.572 | 0.511 | 0.503 | 0.497 | 0.531 | 0.522 | 0.429 | 0.697
NCI-H1651 | 0.785 | 1.08 | 0.774 | 0.667 | 0.46 | 0.519 | 0.43 | 0.521 | 0.31 | 0.195 | 0.845 | 0.693 | 0.664 | 0.463 | 0.527 | 0.454 | 0.584 | 0.534 | 0.44 | 0.565
NCI-H460 | 0.0362 | 0.0282 | 0.0359 | 0.0262 | 0.0291 | 0.572 |  | 0.705 | 0.24 | 0.302 | 0.684 | 0.668 | 0.3 | 0.0347 | 0.341 | 0.356 | 0.405 | 0.333 | 0.156 | 
NCI-H2347 | 0.545 | 0.405 | 0.243 | 0.208 | 0.306 | 0.858 | 0.78 | 0.734 | 0.732 | 0.593 | 0.404 | 0.475 | 0.389 | 0.405 | 0.637 | 0.531 | 0.555 | 0.437 | 0.604 | 
EMC-BAC-2 | 1.26 | 1.24 | 1.21 | 1.28 | 0.951 | 1.36 |  | 1.17 | 1 | 0.599 | 0.39 | 0.4 | 0.374 | 0.327 | 0.493 | 0.569 | 0.527 | 0.589 | 0.451 | 0.342
NCI-H1437 | 1.15 | 1.19 | 1.15 | 1.07 | 0.813 | 1.09 | 1.01 | 1.09 | 0.525 | 0.315 | 0.945 | 0.886 | 0.743 | 0.256 | 0.4 | 0.376 | 0.433 | 0.333 | 0.318 | 0.853
NCI-H650 | 0.892 | 0.862 | 0.773 | 0.82 | 0.639 | 1.09 |  | 0.978 | 0.912 | 0.318 | 0.6 | 0.565 | 0.5 | 0.443 |  | 0.892 | 0.846 | 0.8 | 0.524 | 
NCI-H1944 | 0.658 | 0.838 | 0.751 | 0.491 | 0.507 | 0.626 |  | 0.604 | 0.453 | 0.212 | 0.427 | 0.392 | 0.307 | 0.303 | 0.326 | 0.332 | 0.351 | 0.333 | 0.307 | 
NCI-H1734 | 0.176 | 0.173 | 0.213 | 0.205 | 0.151 | 0.596 | 0.455 | 0.573 | 0.32 | 0.178 | 0.698 | 0.618 | 0.55 | 0.23 | 0.45 | 0.397 | 0.477 | 0.502 | 0.475 | 0.432
NCI-H1915 | 0.807 | 0.764 | 0.49 | 0.47 | 0.448 | 0.775 | 0.546 | 0.69 | 0.726 | 0.301 | 0.623 | 0.625 | 0.617 | 0.287 | 0.985 | 0.944 | 0.936 | 1.02 | 0.676 | 0.448
CAL-12T | 0.315 | 0.652 | 0.339 | 0.333 | 0.216 | 0.643 |  | 0.649 | 0.518 | 0.366 | 0.822 | 0.755 | 0.522 | 0.21 | 0.396 | 0.541 | 0.393 | 0.395 | 0.321 | 0.413
